biological target: wild-type human cardiac sodium channel, hNav1.5 (Homo sapiens, UniProt Q14524); test: Late INa screening assay (late sodium current, PatchXpress whole cell patch clamp); type: cell-based; settings: compound at 10 μM; read-out: Late INa % blk
Sequence (Q14524 whole entry): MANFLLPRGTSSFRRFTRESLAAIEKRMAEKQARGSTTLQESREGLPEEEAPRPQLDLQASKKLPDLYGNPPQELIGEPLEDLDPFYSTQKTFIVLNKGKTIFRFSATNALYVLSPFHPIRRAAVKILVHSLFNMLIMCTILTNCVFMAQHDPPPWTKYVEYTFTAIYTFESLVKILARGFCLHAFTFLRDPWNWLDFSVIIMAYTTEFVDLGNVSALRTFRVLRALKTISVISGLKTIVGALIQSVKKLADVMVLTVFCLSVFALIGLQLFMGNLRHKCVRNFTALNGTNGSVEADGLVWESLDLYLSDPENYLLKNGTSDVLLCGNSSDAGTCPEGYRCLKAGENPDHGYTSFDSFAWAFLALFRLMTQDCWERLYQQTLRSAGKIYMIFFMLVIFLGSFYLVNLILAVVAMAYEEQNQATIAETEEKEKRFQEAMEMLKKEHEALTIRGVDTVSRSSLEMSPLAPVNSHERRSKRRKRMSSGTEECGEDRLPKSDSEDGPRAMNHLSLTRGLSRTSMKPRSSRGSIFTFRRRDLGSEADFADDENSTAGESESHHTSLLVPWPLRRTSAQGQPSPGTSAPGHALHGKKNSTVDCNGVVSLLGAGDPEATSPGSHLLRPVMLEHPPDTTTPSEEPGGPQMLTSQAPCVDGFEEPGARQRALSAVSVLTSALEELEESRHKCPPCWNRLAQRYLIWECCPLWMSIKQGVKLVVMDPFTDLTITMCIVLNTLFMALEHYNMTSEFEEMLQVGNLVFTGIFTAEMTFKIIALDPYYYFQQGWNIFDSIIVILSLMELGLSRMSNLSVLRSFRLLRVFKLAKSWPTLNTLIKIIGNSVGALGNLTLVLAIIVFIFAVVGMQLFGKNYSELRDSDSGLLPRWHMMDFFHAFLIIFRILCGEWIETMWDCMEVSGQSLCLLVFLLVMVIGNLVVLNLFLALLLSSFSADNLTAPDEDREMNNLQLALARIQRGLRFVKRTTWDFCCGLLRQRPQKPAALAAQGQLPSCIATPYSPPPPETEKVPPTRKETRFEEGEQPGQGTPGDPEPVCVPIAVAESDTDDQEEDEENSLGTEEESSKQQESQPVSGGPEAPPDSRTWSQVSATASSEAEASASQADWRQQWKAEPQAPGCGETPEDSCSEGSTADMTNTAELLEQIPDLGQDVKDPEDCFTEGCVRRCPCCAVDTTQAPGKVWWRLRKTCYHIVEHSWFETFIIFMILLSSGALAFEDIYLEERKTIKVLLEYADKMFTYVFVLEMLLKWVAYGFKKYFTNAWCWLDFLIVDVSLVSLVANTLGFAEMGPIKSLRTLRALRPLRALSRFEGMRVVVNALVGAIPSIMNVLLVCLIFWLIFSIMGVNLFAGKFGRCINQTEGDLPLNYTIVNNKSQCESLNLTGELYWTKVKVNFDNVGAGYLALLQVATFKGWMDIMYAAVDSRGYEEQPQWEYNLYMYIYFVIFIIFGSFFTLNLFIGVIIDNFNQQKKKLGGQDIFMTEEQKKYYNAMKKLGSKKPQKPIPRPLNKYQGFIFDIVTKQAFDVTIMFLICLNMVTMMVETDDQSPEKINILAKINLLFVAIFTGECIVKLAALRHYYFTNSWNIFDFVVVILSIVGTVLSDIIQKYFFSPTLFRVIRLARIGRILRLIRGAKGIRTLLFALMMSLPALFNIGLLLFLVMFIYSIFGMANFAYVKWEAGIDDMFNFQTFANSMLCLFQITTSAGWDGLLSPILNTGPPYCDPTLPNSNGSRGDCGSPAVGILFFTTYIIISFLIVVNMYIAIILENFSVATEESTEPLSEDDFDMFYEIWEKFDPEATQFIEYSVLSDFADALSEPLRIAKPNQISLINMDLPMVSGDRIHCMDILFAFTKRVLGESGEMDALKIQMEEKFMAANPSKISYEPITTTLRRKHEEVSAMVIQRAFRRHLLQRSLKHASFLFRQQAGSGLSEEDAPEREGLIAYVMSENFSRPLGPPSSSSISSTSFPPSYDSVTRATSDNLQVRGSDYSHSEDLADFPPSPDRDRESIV

Point of comparison: `CC1=C(C(=O)OCc2ccccc2)C(c2ccccc2-c2ccc(OCc3ccccc3)cc2)n2nnnc2N1` (centres unmarked) [PT-407, benzyl 7-(4′-(benzyloxy)biphenyl-2-yl)-5-methyl-4,7-dihydrotetrazolo[1,5-a]pyrimidine-6-carboxylate], inhibition at 10 µM 10.6%. Against it:
- CCOC(=O)C1=C(C)Nc2nnnn2C1c1ccccc1Oc1ccc(-c2nnn[nH]2)cc1 (centres unmarked) [PT-481, ethyl 7-(2-(4-(1H-tetrazol-5-yl)phenoxy)phenyl)-5-methyl-4,7-dihydrotetrazolo[1,5-a]pyrimidine-6-carboxylate] — higher, 18%
- CCOC(=O)C1=C(C)Nc2nnnn2C1c1ccccc1-c1cncnc1 (centres unmarked) [PT-461, ethyl 5-methyl-7-(2-(pyrimidin-5-yl)phenyl)-4,7-dihydrotetrazolo[1,5-a]pyrimidine-6-carboxylate] — lower, 6.2%
- CCOC(=O)C1=C(C)Nc2ccnn2C1c1c(Br)sc2ccccc12 (centres unmarked) [PT-488, ethyl 7-(2-bromobenzo[b]thiophen-3-yl)-5-methyl-4,7-dihydropyrazolo[1,5-a]pyrimidine-6-carboxylate] — higher, 82.3%
- CC1=C(C(=O)O[C@@H](C)c2ccccc2)[C@H](c2cccc3ccccc23)n2nnnc2N1 [PT-049, (S)-((S)-1-phenylethyl) 5-methyl-7-(naphthalen-1-yl)-4,7-dihydrotetrazolo[1,5-a]pyrimidine-6-carboxylate] — higher, 35.4%
- CCOC(=O)C1=C(C)Nc2ccnn2C1c1ccc(N(C)C)c2ccccc12 (centres unmarked) [PT-502, ethyl 7-(4-(dimethylamino)naphthalen-1-yl)-5-methyl-4,7-dihydropyrazolo[1,5-a]pyrimidine-6-carboxylate] — higher, 27%
- CC1=C(C(=O)OCc2ccc(Oc3ccccc3)cc2)C(c2cccc3ccccc23)n2nnnc2N1 (centres unmarked) [PT-003, 4-phenoxybenzyl 5-methyl-7-(naphthalen-1-yl)-4,7-dihydrotetrazolo[1,5-a]pyrimidine-6-carboxylate] — higher, 14.5%
- CCOC(=O)C1=C(C)NC(C)=C(C(=O)OCC)C1c1ccc(-c2ccccc2C(F)(F)F)o1 [PT-119, diethyl 2,6-dimethyl-4-(5-(2-(trifluoromethyl)phenyl)furan-2-yl)-1,4-dihydropyridine-3,5-dicarboxylate] — lower, 3.8%
- CCOC(=O)C1=C(C)N(C)c2nnnn2C1c1cccc2ccccc12 (centres unmarked) [PT-015, ethyl 4,5-dimethyl-7-(naphthalen-1-yl)-4,7-dihydrotetrazolo[1,5-a]pyrimidine-6-carboxylate] — higher, 27.2%
- COC(=O)C1=C(C)Nc2[nH]ncc2C1c1sc(Cl)nc1Cl (centres unmarked) [PT-510, methyl 4-(2,4-dichlorothiazol-5-yl)-6-methyl-4,7-dihydro-1H-pyrazolo[3,4-b]pyridine-5-carboxylate] — higher, 19.9%
- CC1=C(C(=O)OCc2ccc(-c3ccccc3)cc2)C(c2cccc3ccccc23)n2nnnc2N1 (centres unmarked) [PT-004, biphenyl-4-ylmethyl 5-methyl-7-(naphthalen-1-yl)-4,7-dihydrotetrazolo[1,5-a]pyrimidine-6-carboxylate] — higher, 25.5%
- CC1=C(C(=O)OCCOc2ccc(C(=O)O)cc2)C(c2cccc3ccccc23)n2nnnc2N1 (centres unmarked) [PT-290, 4-(2-(5-methyl-7-(naphthalen-1-yl)-4,7-dihydrotetrazolo[1,5-a]pyrimidine-6-carbonyloxy)ethoxy)benzoic acid] — higher, 14.4%
- CCOC(=O)C1=C(C)Nc2nnnn2C1c1ccccc1Oc1cccc(C(=O)OCC)c1 (centres unmarked) [PT-479, ethyl 7-(2-(3-(ethoxycarbonyl)phenoxy)phenyl)-5-methyl-4,7-dihydrotetrazolo[1,5-a]pyrimidine-6-carboxylate] — higher, 35.7%
- COc1cc(Cl)ccc1COC(=O)C1=C(C)Nc2nnnn2C1c1ccccc1Br (centres unmarked) [PT-308, 4-chloro-2-methoxybenzyl 7-(2-bromophenyl)-5-methyl-4,7-dihydrotetrazolo[1,5-a]pyrimidine-6-carboxylate] — higher, 53.4%

Reference: patent publication US20090012103A1, “SUBSTITUTED HETEROCYCLIC COMPOUNDS” (priority 2007, published 2009)
